Measured values from ChEMBL document CHEMBL1143916, “Inhibition of 3(17)alpha-hydroxysteroid dehydrogenase (AKR1C21) by aldose reductase inhibitors” (Bioorg Med Chem, 2008).

Experiments:
[1] = target: T1, Aldo-keto reductase family 1 member C21 (Mus musculus, UniProt Q91WR5); assay: Inhibition of mouse recombinant AKR1C21
T1 sequence (Q91WR5 whole entry): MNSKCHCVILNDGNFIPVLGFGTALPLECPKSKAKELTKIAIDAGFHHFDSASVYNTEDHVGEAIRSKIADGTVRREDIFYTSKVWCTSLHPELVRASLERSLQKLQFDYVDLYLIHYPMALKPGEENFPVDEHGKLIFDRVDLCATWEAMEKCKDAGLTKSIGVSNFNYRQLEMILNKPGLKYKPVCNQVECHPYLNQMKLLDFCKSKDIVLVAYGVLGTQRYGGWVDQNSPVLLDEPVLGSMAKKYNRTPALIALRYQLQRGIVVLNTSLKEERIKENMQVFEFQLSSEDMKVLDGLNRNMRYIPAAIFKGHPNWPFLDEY

[2] = target: Aldo-keto reductase family 1 member B1 (Homo sapiens, UniProt P15121); assay: Inhibition of human recombinant aldose reductase
[3] = target: T2, Aldo-keto reductase family 1 member C21 (Mus musculus) (UniProt Q91WR5); assay: Inhibition of mouse recombinant AKR1C21 at 12 uM
T2 sequence (whole entry): T1 sequence (Q91WR5 whole entry)

Ki [1] [µM] | inhibition [3] [%] | Structure (SMILES) | IC50 [1] [µM] | IC50 [2] [µM]
22 |  | COc1ccc2c(C(=S)N(C)CC(=O)O)cccc2c1C(F)(F)F [TOLRESTAT] | 48 | 
 |  | O=C(O)Cc1nn(Cc2nc3cc(C(F)(F)F)ccc3s2)c(=O)c2ccccc12 [ZOPOLRESTAT] | 158 | 
 |  | O=c1c(O)c(-c2cc(O)c(O)c(O)c2)oc2cc(O)cc(O)c12 [MYRICETIN] | 12.3 | 29
 | 36 | O=c1cc(-c2ccccc2)oc2cc(O)cc(O)c12 [CHRYSIN] |  | 8.5
 |  | C[C@@H]1O[C@@H](Oc2c(-c3ccc(O)c(O)c3)oc3cc(O)cc(O)c3c2=O)[C@H](O)[C@H](O)[C@H]1O [QUERCITRIN] | 33.3 | 
10.4 |  | O=C1CC2(C(=O)N1)C(=O)N(Cc1ccc(Br)cc1F)C(=O)c1ccc(F)cc12 (configuration not stated) | 27.5 | 

Structure (SMILES) | Ki [1] [µM] | inhibition [3] [%] | IC50 [1] [µM] | IC50 [2] [µM]
O=c1c(O)c(-c2ccc(O)c(O)c2)oc2cc(O)cc(O)c12 [QUERCETIN] | 11 |  | 6.9 | 
